Literature values as cited in paper PMC9686516, “Pharmacokinetic Characteristics of Nebulized Colistimethate Sodium Using Two Different Types of Nebulizers in Critically Ill Patients with Ventilator-Associated Respiratory Infections” (Antibiotics, 2022).
Where a SMILES comes first, the peptide text is derived from it. Bridges are numbered along the chain shown (N, C = ends). [ ]: non-standard residue; d: D form. The star is where a group is joined. X1 = CC[C@H](C)CCCCC(=O)*; Dab = NCC[C@H](N)C(=O)O

Columns and labels:
[1] = piglets, cited from earlier work
Experimental: Nevertheless, in a piglet model of ventilated P. aeruginosa inoculation pneumonia, Lu et al. observed a serum maximum colistin concentration of 1.6 ± 1.4 mg/L after VMN aerosolization of 0.1 mIU/kg of CMS [28]. […] Post-nebulization colistin tissue levels have never been measured in humans; if the results abov ...

[2] = 1 mIU of CMS via VMN; similar ICU setting; median (IQR); cited from earlier work
Experimental: In this single-center study, we compared the pharmacokinetic properties of formed colistin in the ELF and the plasma compartment when inhaled CMS, at a typical dose, was administered either via a VMN or a generic JN. […] Indeed, the median total (as opposed to unbound) AUC0–24 in the ELF for the two modalities were 86.2 and 91.5 mg/L*h for VMN and JN, respectively. […] However, the ELF exposure was similar, despite the higher dose, probably due to a higher clearance from the lung compartment in our study, as evidenced by the ... || Contrarily, our results were only marginally compatible with the results of Boisson et al. and Gkoufa et al.. In the former study, the range of colistin concentration in the ELF following a 2 mIU inhalation spanned from 9.53 to 1137 mg/L [14], while it was between 0.8 mg/L and 57.9 mg/L in the present study. In the latter study, the exact values were not reported, however in the figured data it was shown that after an inhalation of 3 to 5 mIU of CMS, formed colistin concentrations were in the range of 10^2 to 10^3 mg/L [16]. Again, it is not known whether these differences we ...

[3] = cited from earlier work
Experimental: However, the ELF exposure was similar, despite the higher dose, probably due to a higher clearance from the lung compartment in our study, as evidenced by the ... || Contrarily, our results were only marginally compatible with the results of Boisson et al. and Gkoufa et al.. In the former study, the range of colistin concentration in the ELF following a 2 mIU inhalation spanned from 9.53 to 1137 mg/L [14], while it was between 0.8 mg/L and 57.9 mg/L in the present study. In the latter study, the exact values were not reported, however in the figured data it was shown that after an inhalation of 3 to 5 mIU of CMS, formed colistin concentrations were in the range of 10^2 to 10^3 mg/L [16]. Again, it is not known whether these differences we ...

**Q.** For `CC[C@H](C)CCCCC(=O)N[C@@H](CCN)C(=O)N[C@H](C(=O)N[C@@H](CCN)C(=O)N[C@H]1CCNC(=O)[C@H]([C@@H](C)O)NC(=O)[C@H](CCN)NC(=O)[C@H](CCN)NC(=O)[C@H](CC(C)C)NC(=O)[C@@H](CC(C)C)NC(=O)[C@H](CCN)NC1=O)[C@@H](C)O` [colistin] (X1-[Dab]T[Dab][Dab][Dab][dL]L[Dab][Dab]T; lactam 4-C), which “median peak lung tissue concentration” value ([1]; 1 h after the third inhaled dose, upon sacrifice) is on record?
**A.** 2.8 µg/g

**Q.** What about the “serum maximum colistin concentration” value ([1]; VMN aerosolization of 0.1 mIU/kg of CMS, ref 28 (Lu et al.)) of the same compound?
**A.** 1.6 ± 1.4 mg/L

**Q.** What about the “Cmax in ELF” value [2] of the same compound?
**A.** 6.7 (4.8–10.1) mg/L

**Q.** What about the “median plasma Cmax” value ([3]; 1 mIU of CMS via VMN, ref 13 (Athanassa et al.)) of the same compound?
**A.** 1600 ng/mL

**Q.** And the plasma concentrations ([3]; after inhaled CMS, generally)?
**A.** below 1 mg/L
